Experimental data from the NIST ThermoML archive (doi:10.1021/acs.jced.6b00269).
Numbers after ± are expanded uncertainties.

Conditions: for viscosity / mass density: 101.33 kPa, Liquid; for viscosity: Cone and plate viscometry; for mass density: Vibrating tube method

| SMILES | viscosity (278.15 K) [mPa·s] | viscosity (283.15 K) [mPa·s] | mass density (283.15 K) [kg/m3] | viscosity (288.15 K) [mPa·s] | mass density (288.15 K) [kg/m3] | viscosity (293.15 K) [mPa·s] | mass density (293.15 K) [kg/m3] | mass density (295.15 K) [kg/m3] | viscosity (298.15 K) [mPa·s] | mass density (298.15 K) [kg/m3] | viscosity (303.15 K) [mPa·s] | mass density (303.15 K) [kg/m3] | viscosity (308.15 K) [mPa·s] | mass density (308.15 K) [kg/m3] | viscosity (313.15 K) [mPa·s] | mass density (313.15 K) [kg/m3] | viscosity (318.15 K) [mPa·s] | mass density (318.15 K) [kg/m3] | viscosity (323.15 K) [mPa·s] | mass density (323.15 K) [kg/m3] | also measured |
| --- | --- | --- | --- | --- | --- | --- | --- | --- | --- | --- | --- | --- | --- | --- | --- | --- | --- | --- | --- | --- | --- |
| CCCCCCCCCCCCCC[P+](CCCCCC)(CCCCCC)CCCCCC.O=[N+]([O-])c1cn[n-]c1 [trihexyl(tetradecyl)phosphonium 4-nitropyrazolide] | 3560 ± 370 | 2290 ± 220 | 948.8 ± 4.9 | 1500 ± 140 | 945.6 ± 4.9 | 1020 ± 89 | 942.3 ± 4.8 | 941.1 ± 4.8 | 710 ± 59 | 939.3 ± 4.8 | 510 ± 40 | 936.4 ± 4.8 | 375 ± 28 | 933.4 ± 4.8 | 280 ± 21 | 930.4 ± 4.7 | 214 ± 15 | 927.4 ± 4.7 | 167 ± 12 | 924.5 ± 4.7 | viscosity (328.15 K): 133 ± 9 mPa·s; mass density (328.15 K): 921.6 ± 4.7 kg/m3; viscosity (333.15 K): 108 ± 7 mPa·s; mass density (333.15 K): 918.7 ± 4.6 kg/m3; viscosity (338.15 K): 88 ± 6 mPa·s; mass density (338.15 K): 915.8 ± 4.6 kg/m3; viscosity (343.15 K): 74 ± 5 mPa·s; mass density (343.15 K): 912.8 ± 4.6 kg/m3; mass density (348.15 K): 909.9 ± 4.6 kg/m3; mass density (353.15 K): 907 ± 4.6 kg/m3; Glass transition temperature (Glass, DSC): -75 ± 2 °C |
| CC(=O)[O-].CCCCCCCCCCCCCC[P+](CCCCCC)(CCCCCC)CCCCCC [trihexyl(tetradecyl)phosphonium acetate] | 1820 ± 170 | 1200 ± 110 | 895 ± 4.5 | 814 ± 69 | 891.9 ± 4.4 | 566 ± 45 | 888.9 ± 4.4 | 887.6 ± 4.4 | 406 ± 31 | 885.8 ± 4.4 | 298 ± 22 | 882.8 ± 4.4 | 224 ± 16 | 879.8 ± 4.3 | 172 ± 12 | 876.8 ± 4.3 | 135 ± 9 | 873.7 ± 4.3 | 107 ± 7 | 870.7 ± 4.3 | mass density (328.15 K): 867.7 ± 4.3 kg/m3; mass density (333.15 K): 864.7 ± 4.2 kg/m3; mass density (338.15 K): 861.7 ± 4.2 kg/m3; mass density (343.15 K): 858.7 ± 4.2 kg/m3; mass density (348.15 K): 855.7 ± 4.2 kg/m3; mass density (353.15 K): 852.7 ± 4.2 kg/m3 |
